Measured values as given in BindingDB's records for patent US10383835 (University of California, 2019).

Molecular target: T1, Bifunctional epoxide hydrolase 2 (Sus scrofa, UniProt Q6Q2C2)
T1 sequence (Q6Q2C2 whole entry): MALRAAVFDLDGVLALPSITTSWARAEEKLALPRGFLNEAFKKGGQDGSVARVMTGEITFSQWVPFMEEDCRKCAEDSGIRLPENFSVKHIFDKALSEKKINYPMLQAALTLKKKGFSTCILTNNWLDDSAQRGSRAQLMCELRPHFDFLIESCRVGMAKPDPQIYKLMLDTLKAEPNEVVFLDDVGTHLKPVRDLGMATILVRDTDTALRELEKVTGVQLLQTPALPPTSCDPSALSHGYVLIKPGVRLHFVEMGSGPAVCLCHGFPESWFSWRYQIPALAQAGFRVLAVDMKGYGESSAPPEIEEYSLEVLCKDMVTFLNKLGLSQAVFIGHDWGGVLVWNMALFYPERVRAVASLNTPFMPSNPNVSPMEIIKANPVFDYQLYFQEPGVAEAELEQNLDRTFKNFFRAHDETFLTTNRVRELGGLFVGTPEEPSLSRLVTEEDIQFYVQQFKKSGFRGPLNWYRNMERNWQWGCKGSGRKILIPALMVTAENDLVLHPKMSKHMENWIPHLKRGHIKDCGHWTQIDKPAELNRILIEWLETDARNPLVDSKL
Assay: Inhibition Assay
Excerpt: The enzyme also can be detected based on the binding of specific ligands to the catalytic site which either immobilize the enzyme or label it with a probe such as dansyl, fluoracein, luciferase, green fluorescent protein or other reagent. The enzyme can be assayed by its hydration of EETs, its hydrolysis of an epoxide to give a colored product. The assays are normally carried out with a recombinant enzyme following affinity purification.

CC(=O)N1CCC(NC(=O)Nc2ccc(OC(F)(F)F)cc2)CC1 [US10383835, Compound 1555]
IC50: 201 nM
